PubChem BioAssay AID463199 (Broad Institute, 2010)
Active and inactive are the calls of the source.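 Rule for the calls: active = AC50, the dose giving half-maximal effect, exceeds a fixed cutoff for a compound that rescues yeast growth under heat; inactive = the rest, inconclusive results apart.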

Test system: S. cerevisiae Burl-1 ts mutant growth, BacTiter-Glo, 38.5C 24 h
Assay: restored growth of temperature-sensitive Burl-1 yeast – whole organism, S. cerevisiae, Burl-1 ts mutant, luminescence, counter-screen for SUMOylation pathway inhibitor project, dose response (AID 463199)

For CCOc1cc(S(=O)(=O)NCc2ccc3c(c2)OCO3)c(C)cc1C, the AC50 was > 42 µM (inactive).
With CC[C@@H]1C/C=C\Cc2ccccc2[C@H](C(=O)C[C@@H](O)CC(C)=O)OC1=O the AC50 was > 42 µM (inactive).
With CCc1cc2c(=O)c(-c3ccc(F)cc3)c(C(F)(F)F)oc2cc1OCC(=O)O the AC50 was > 42 µM (inactive).
O=C(c1cc2ccccc2o1)N1CCCC1 was tested, and the AC50 was > 42 µM (inactive).
With [N-]=[N+]=NCCN1CCC(O)CCC1=O (configuration not stated) the AC50 was > 42 µM (inactive).
CC(C)C(NC(=S)Nc1ccccc1)C(=O)O (configuration not stated) was tested, and the AC50 was > 42 µM (inactive).
In the case of O=C(c1ccc(-c2ccccc2)cc1)C1CCCN(Cc2ccncc2)C1 (configuration not stated), the AC50 is reported as > 42 µM (inactive).
In the case of O=c1c2c(ncn1Cc1ccccc1)nc1n2CCC1, the AC50 is reported as > 42 µM (inactive).
With O=c1cnc2cc([N+](=O)[O-])ccc2[nH]1 the AC50 was > 42 µM (inactive).
With CCS(=O)(=O)N1CCCC(C(=O)NCc2cccnc2)C1 (configuration not stated) the AC50 was > 42 µM (inactive).
In the case of COc1cc(C)ccc1OCCCOc1ccccc1Br, the AC50 is reported as > 42 µM (inactive).
With Cc1csc(CNc2ncnc3ccc(-c4ccccc4Cl)cc23)c1 the AC50 was > 42 µM (inactive).
For O=C(OCC(=O)N1CCN(Cc2ccccc2)CC1)c1ccc(Cl)cc1, the AC50 was > 42 µM (inactive).
In the case of CCOC(=O)C1C(=O)NC(SCC(=O)Nc2nccs2)=C(C#N)C1c1ccccc1OCC (configuration not stated), the AC50 is reported as > 42 µM (inactive).
With Cc1ccccc1Nc1cc(=O)oc2ccccc12 the AC50 was > 42 µM (inactive).
With C=CCNC(=O)NC(=O)COC(=O)CCCSc1nc2ccccc2[nH]1 the AC50 was > 42 µM (inactive).
With O=C(c1cc(N2C(=O)C3C4CCC(C4)C3C2=O)ccc1Cl)N1CCCCCC1 (configuration not stated) the AC50 was > 42 µM (inactive).
With CC(=O)OCC(OC(C)=O)C(OC(C)=O)C(OC(C)=O)C(=O)Nc1ccccc1 (configuration not stated) the AC50 was > 42 µM (inactive).
With Cc1[nH]c2ccccc2c1/C=N/NC(=O)c1cccc(Br)c1 the AC50 was > 42 µM (inactive).
COCCn1c(SCc2ccc(Cl)cc2)nc2c1c(=O)[nH]c(=O)n2C was tested, and the AC50 was > 42 µM (inactive).
In the case of COc1ccc(CCC(=O)NNC(=S)Nc2cccc(C(C)=O)c2)cc1, the AC50 is reported as > 42 µM (inactive).
With O=C(NC1CCCCC1)c1n[nH]c2c1CCCCC2 the AC50 was > 42 µM (inactive).
With O=C(NCc1csc(-c2cccs2)n1)Nc1ccc(F)cc1F the AC50 was > 42 µM (inactive).
In the case of COCCn1c(SCC(=O)NCc2cccs2)nnc1-c1ccc(OC)cc1, the AC50 is reported as > 42 µM (inactive).
For O=C(NCC(c1cccs1)N1CCOCC1)c1ccccc1NS(=O)(=O)c1cc([N+](=O)[O-])ccc1Cl (configuration not stated), the AC50 was > 42 µM (inactive).
In the case of CC(C)NC(=O)COc1ccc(S(=O)(=O)N(C)Cc2ccccc2)cc1, the AC50 is reported as > 42 µM (inactive).
For Cc1ccc(S(=O)(=O)/N=C(/Nc2ccc([N+](=O)[O-])cc2[N+](=O)[O-])c2ccccc2)cc1, the AC50 was > 42 µM (inactive).
CCCC1Cc2c(sc3ncnc(N)c23)CO1 (configuration not stated) was tested, and the AC50 was 9.15 µM.
O=C(NCC(=O)N(c1ccccc1)C(C(=O)NCC1CCCO1)c1ccccc1)c1cccs1 (configuration not stated) was tested, and the AC50 was > 42 µM (inactive).
For COC(=O)c1ccc(CSc2nnnn2-c2ccccc2)o1, the AC50 was > 42 µM (inactive).
In the case of CN1CCN(C(=O)CCN2C(=O)/C(=C/c3ccccc3Cl)SC2=S)CC1, the AC50 is reported as > 42 µM (inactive).
With N#Cc1ccc(Oc2ccc(S(=O)(=O)N3CCCCC3)cn2)cc1 the AC50 was > 42 µM (inactive).
In the case of O=c1cc(-c2ccccc2)nc(N2CCN(Cc3ccccc3)CC2)[nH]1, the AC50 is reported as > 42 µM (inactive).
In the case of COc1ccc(C2=Nn3c(nnc3-c3ccco3)SC2)cc1, the AC50 is reported as > 42 µM (inactive).
For COC(=O)[C@@H](NC(=O)Nc1ccc(S(N)(=O)=O)cc1)C(C)C, the AC50 was > 42 µM (inactive).
For C/C(=N\N1CCN(Cc2ccccc2Cl)CC1)c1ccc([N+](=O)[O-])cc1, the AC50 was > 42 µM (inactive).
With O=C(O)CCC(NC(=O)c1ccc(Cl)cc1)C(=O)O (configuration not stated) the AC50 was > 42 µM (inactive).
With Clc1ccccc1-c1ccc2ncnc(NCc3cccs3)c2c1 the AC50 was > 42 µM (inactive).
In the case of O=C1NC2(CCCCC2)NN1c1ccccc1, the AC50 is reported as > 42 µM (inactive).
In the case of Clc1ccc(CNCc2cccs2)cc1Cl, the AC50 is reported as > 42 µM (inactive).
In the case of COc1cc(SC)ccc1C(=O)Nc1cc(C)c(OCC(=O)N2CCOCC2)c(C)c1, the AC50 is reported as > 42 µM (inactive).
With COc1ccc(-c2noc(CSc3nc(-c4ccccc4)cc(=O)[nH]3)n2)cc1OC the AC50 was > 42 µM (inactive).
For COc1ccc(CN(C)C(=O)c2sccc2-c2ccccc2)c(OC)c1, the AC50 was > 42 µM (inactive).
In the case of COc1ccc(N=Cc2c(O)n(C)c(=O)[nH]c2=O)cc1, the AC50 is reported as > 42 µM (inactive).
For CCCCC(=O)NCCc1ccc(S(N)(=O)=O)cc1, the AC50 was > 42 µM (inactive).
With CC(=O)Nc1cccc(C(=O)OCC(=O)NCc2ccc(F)cc2)c1 the AC50 was > 42 µM (inactive).
In the case of CC(=O)Nc1ccc(S(=O)(=O)Nc2cccc(-c3ccc4nncn4n3)c2)cc1, the AC50 is reported as > 42 µM (inactive).
For Cc1cccc(C)c1NC(=O)C1(N(Cc2ccco2)C(=O)CC2NC(=O)NC2=O)CCCCC1 (configuration not stated), the AC50 was > 42 µM (inactive).
O=C(CC(c1ccccc1)c1ccccc1O)NCCN1CCOCC1 (configuration not stated) was tested, and the AC50 was > 42 µM (inactive).
For Cc1ccc(N2C(=O)c3cccc4c(N5CCN(C)CC5)ccc(c34)C2=O)c2cccnc12, the AC50 was > 42 µM (inactive).
For O=S(=O)(c1ccc(C2CCCCC2)cc1)N1CCCC1, the AC50 was > 42 µM (inactive).
CC1CCN(CCNC(=O)C2CCCN(S(=O)(=O)c3cccc4nsnc34)C2)CC1 (configuration not stated) was tested, and the AC50 was > 42 µM (inactive).
With O=C(Nc1nc2ccccc2s1)c1cccc(S(=O)(=O)N2CCc3ccccc32)c1 the AC50 was > 42 µM (inactive).
In the case of COC(=O)CCC(=O)OC1(C)C(=O)C2=CN(CCc3c[nH]c4ccccc34)C(c3ccc(OC)cc3)=CC2=C(Br)C1=O (configuration not stated), the AC50 is reported as > 42 µM (inactive).
In the case of O=C1CCCN1CCC(=O)N1CCCC(N2CCN(c3ccccc3F)CC2)C1 (configuration not stated), the AC50 is reported as > 42 µM (inactive).
For Cn1cc(C(=O)N2CCCC(Nc3ccc(F)cc3)C2)c2ccccc21 (configuration not stated), the AC50 was > 42 µM (inactive).
In the case of CC(=O)CSc1ncnc2sc3c(c12)CCCC3, the AC50 is reported as > 42 µM (inactive).
In the case of COC(=O)c1cn(C(=O)c2cccc3ccccc23)c2ccccc12, the AC50 is reported as > 42 µM (inactive).
CCCc1cc(=O)oc2c3c(c4c(c12)OC(C)(C)C=C4)OC(C)C(C)C3O (configuration not stated) was tested, and the AC50 was > 42 µM (inactive).
With Cc1cc(C)c2c(=O)[nH]cnc2n1 the AC50 was > 42 µM (inactive).
For Cc1ccc2c(c1)N(CC(=O)NCC1CCCO1)C(=O)C(C)O2 (configuration not stated), the AC50 was > 42 µM (inactive).
COc1ccc(C2C(C(C)=O)=C(O)C(=O)N2CCO)c(OC)c1 (configuration not stated) was tested, and the AC50 was > 42 µM (inactive).
For O=C(CSc1nc2ccc(Cl)cc2[nH]1)NCc1ccco1, the AC50 was > 42 µM (inactive).
O=C(Nc1cccc(Cl)c1)OCc1cncs1 was tested, and the AC50 was > 42 µM (inactive).
With Cc1nc(N/N=C\c2ccc3c(c2)OCO3)sc1C the AC50 was > 42 µM (inactive).
COCCn1c(=O)[nH]c(=O)c2cc(C(=O)c3cc(Cl)ccc3O)cnc21 was tested, and the AC50 was > 42 µM (inactive).
CS(=O)(=O)Nc1ccccc1C(=O)NCCSCc1ccccc1 was tested, and the AC50 was > 42 µM (inactive).
With Cc1cccc(OCc2nnc(SCC(=O)N3c4ccccc4CC3C)n2C)c1C (configuration not stated) the AC50 was > 42 µM (inactive).
CN1CCCCC1=NCCCn1cnc2c1c(=O)n(C)c(=O)n2C was tested, and the AC50 was > 42 µM (inactive).
With Cc1ccc(S(=O)(=O)Oc2ccccc2N2C(=O)C3CC=CCC3C2=O)cc1 (configuration not stated) the AC50 was > 42 µM (inactive).
With Cc1ccc(-c2csc(C3=C(O)CN(NC(=O)c4ccco4)C3=N)n2)cc1 the AC50 was > 42 µM (inactive).
In the case of CC1(C)CC(=O)C(C(=O)c2ccccc2)C(=O)C1Cl (configuration not stated), the AC50 is reported as > 42 µM (inactive).
